Literature values, collected in patent US9133180B2, “Aurora and FLT3 kinases modulators” (SAREUM LIMITED, priority 2012, dated 2015).

How the values were obtained:
[1] = tested on: SW620, HCT-116, Colo205, A549, Calu-6 or HL-60 tumour xenografts; settings: HL-60 xenograft; cited from earlier work
[2] = tested on: treatment-refractory primary Acute Myelogenous Leukemia (AML) cells; settings: cells from patients; cited from earlier work

Compound	complete tumour regression (animals) [1]	killing of primary AML cells [2]
CCN(CCCOc1ccc2c(Nc3cc(CC(=O)Nc4cccc(F)c4)n[nH]3)ncnc2c1)CCOP(=O)(O)O [AZD1152]	8 of 11	–
Cc1cc(Nc2cc(N3CCN(C)CC3)nc(Sc3ccc(NC(=O)C4CC4)cc3)n2)n[nH]1 [VX-680]	–	potently killed
